Entries after “also recorded” stand apart in the source; their conditions may differ.
Experiments:
[1] = target: T1, human adenosine A2A receptor (Homo sapiens, UniProt P29274); assay: Radioligand displacement at A2AAR-HEK membranes; format: binding; details: for Max Displacement at A2AAR-HEK membranes: 10 µM of test compound; for A2A / A1 selectivity: mammalian membranes, A2AAR over A1AR
[2] = target: T2, human adenosine A1 receptor (Homo sapiens, UniProt P30542); assay: Radioligand; format: binding; details: for inhibition at 10 µM: read-out: Max Displacement A1AR-CHO membranes
T2 sequence (P30542 1-326): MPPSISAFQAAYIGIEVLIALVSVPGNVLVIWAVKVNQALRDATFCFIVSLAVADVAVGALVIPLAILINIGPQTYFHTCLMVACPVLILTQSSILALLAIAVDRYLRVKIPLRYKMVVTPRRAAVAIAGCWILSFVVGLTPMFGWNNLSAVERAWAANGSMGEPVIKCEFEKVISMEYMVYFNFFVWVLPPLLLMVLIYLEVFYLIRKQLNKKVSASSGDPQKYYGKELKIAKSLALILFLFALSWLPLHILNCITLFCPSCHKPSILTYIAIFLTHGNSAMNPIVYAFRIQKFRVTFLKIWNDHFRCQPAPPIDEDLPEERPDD

[3] = target: T1, human adenosine A2A receptor; assay: Functional cAMP accumulation assay; format: cell-based; details: 10 µM compound, 10 nM or 10 µM 3a
[4] = tested on: forskolin stimulated cAMP generation; assay: Forskolin stimulated cAMP generation; format: cell-based; details: data not shown
human A2AAR receptor = human A2AAR receptor (Homo sapiens, UniProt P29274); assay: Competition binding with tritiated compound 1; details: for LE (experimental ligand efficiency): ligand binding energy per heavy atom, from Sf9 Ki
human A2AAR receptor, sequence (P29274 whole entry): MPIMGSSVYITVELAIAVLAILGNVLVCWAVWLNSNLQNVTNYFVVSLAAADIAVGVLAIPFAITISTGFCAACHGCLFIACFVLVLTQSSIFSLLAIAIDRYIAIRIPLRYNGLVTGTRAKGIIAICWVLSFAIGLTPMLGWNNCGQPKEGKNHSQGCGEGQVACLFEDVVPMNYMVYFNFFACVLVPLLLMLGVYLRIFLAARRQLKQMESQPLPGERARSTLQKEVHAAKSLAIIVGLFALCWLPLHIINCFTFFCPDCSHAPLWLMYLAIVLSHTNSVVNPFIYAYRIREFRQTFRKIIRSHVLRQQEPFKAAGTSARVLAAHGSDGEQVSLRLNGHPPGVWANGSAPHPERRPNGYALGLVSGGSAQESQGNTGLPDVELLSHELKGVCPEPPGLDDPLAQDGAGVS

[5] = Visible sedimentation in binding assay; details: binding assay buffer

T1 sequence (P29274 whole entry): as above

| SMILES | Ki [1] | Max Displacement at A2AAR-HEK membranes [1] | A2A / A1 selectivity [1] | Ki [2] | inhibition at 10 µM [2] | A2AAR affinity (in words) (human A2AAR receptor; Sf9 membranes) | further results |
| --- | --- | --- | --- | --- | --- | --- | --- |
| Nc1c(C(=O)Nc2ccccc2F)sc2nc3c(cc12)C(=O)CCC3 [compound 6] | 60 nM | 48% | 1.42 fold | 90 nM | 32% | – | A2AAR antagonist functional activity (in words) [3]: the effect does not depend on agonist concentration; effect on forskolin stimulated cAMP generation [4]: inhibited |
| CN1CCc2sc3nc(C(=O)Nc4ccc(F)cc4)c(N)cc3c2C1 [compound 7] | – | – | – | – | – | – | Ki (human A2AAR receptor): 1900 nM |
| N#Cc1c(N)nc2c(C(N)=O)c(Nc3ccccc3)sc2c1-c1ccccc1 [compound 8] | 1140 nM | 53% | 0.05 fold | 60 nM | 100% | – | A2AAR antagonist functional activity (in words) [3]: No A2AAR specific activity; also recorded: does not have any functional activity |
| COc1ccc(Cl)cc1Nc1nc(N)nc(-c2oc3ccccc3c2C)n1 [compound 9] | 490 nM | 41% | 2.94 fold | 1440 nM | 41% | – | concentration with visible sedimentation of the compound [5]: above 10 µM; Ki (human A2AAR receptor): 30 nM; displacement of the hot ligand (human A2AAR receptor; Sf9 membranes, at 2 µM): up to 80%; A2AAR antagonist functional activity (in words) [3]: one of the highest among the tested ligands |
| CN1CCc2nc3sc(C(=O)Nc4ccc(Cl)cc4)c(N)c3cc2C1 [compound 10] | > 10000 nM | – | – | 1120 nM | 28% | – | binding to the HEK293 expressed A2AAR protein (in words) ([1]; HEK293 membranes): did not show any substantial binding |
| Nc1c(C(=O)Nc2nccs2)sc2nc3c(cc12)C(=O)CCC3 [compound 14] | 60 nM | 54% | 2.24 fold | 140 nM | 25% | – | – |
| N#Cc1c(N)nc2c(oc3ccccc32)c1-c1ccccc1 [compound 15] | 560 nM | 73% | 0.87 fold | 480 nM | 27% | – | – |
| Nc1c(C(=O)c2ccccc2)oc2ccc(Br)cc12 [compound 16] | – | – | – | – | – | modest affinity | LE (experimental ligand efficiency) (human A2AAR receptor): 0.38 kcal/mol per heavy atom |
| NC1=C(Nc2cccc(C(F)(F)F)c2)C(=O)c2ccccc2C1=O [compound 17] | 720 nM | 73% | >10. fold | > 10000 nM | – | – | LE (experimental ligand efficiency) (human A2AAR receptor): ~ 0.4 kcal/mol per heavy atom; A2AAR antagonist functional activity (in words) [3]: significant activity |
| Nc1c(Oc2ccccc2)ccc2c1C(=O)c1ccccc1C2=O [compound 20] | – | – | – | – | – | low-µM affinity | – |
| Cc1ccc(N2C(=O)c3cccc(N)c3C2=O)cc1 [compound 21] | – | 57% | 0.13 fold | 390 nM | 86% | modest | – |
| COc1ccc(N)c2c1C(=O)c1ccccc1C2=O [compound 26] | 100 nM | 100% | 2.74 fold | 260 nM | 100% | sub-µM affinity | – |
| Nc1cccc2c1C(=O)c1ccccc1C2=O [compound 28] | – | – | – | – | – | low-µM affinity | – |
| Nc1ccc(N)c2c1C(=O)c1ccccc1C2=O [compound 29] | 110 nM | 100% | 2.51 fold | 280 nM | 100% | sub-µM affinity | – |
| Cn1c(=O)cc2c3c(c(N)ccc31)C(=O)c1ccccc1-2 [compound 35] | 200 nM | 100% | 0.75 fold | 150 nM | 100% | sub-µM affinity | – |
| Nc1c(Sc2ccccc2)cc(Sc2ccccc2)c2c1C(=O)c1ccccc1C2=O [compound 38] | – | – | – | – | – | low-µM affinity | – |
| CC(=O)Oc1cccc(-c2nc(C(N)=O)c(N)o2)c1 [compound 46] | – | – | – | – | – | modest affinity | LE (experimental ligand efficiency) (human A2AAR receptor): 0.32 kcal/mol per heavy atom |
| Nc1ccc(Cl)c2c1C(=O)c1ccccc1C2=O [compound 49] | 940 nM | – | – | 190 nM | 100% | sub-µM affinity | – |
| Cc1cccc(NC2=C(N)C(=O)c3ccccc3C2=O)c1 [compound 50] | 150 nM | 50% | – | 1750 nM | 27% | – | LE (experimental ligand efficiency) (human A2AAR receptor): ~ 0.4 kcal/mol per heavy atom; A2AAR antagonist functional activity (in words) [3]: significant activity |
| Nc1ccc(-c2nc3c(N)cccc3[nH]2)cc1 [compound 57] | – | – | – | – | – | – | LE (experimental ligand efficiency) (human A2AAR receptor): 0.32 kcal/mol per heavy atom |

Source: PMC2826142 (Journal of medicinal chemistry, 2010)
